Laboratory results published in US5235061A, “Fungicidal (1H-1,2,4-triazolyl)disilaalkanes” (priority 1991, dated 1993).
Like-named read-outs stand apart in the source and are kept apart here.

Experiments:
Assay in all cases: In vitro percent disease control (radii of spore growth on agar)
Assay type in all cases: cell-based
Alternaria mali = settings: for inhibition of growth at 50 ppm / inhibition of growth at 100 ppm: Alternaria mali, read-out: % controlled, Al.
How it was run: (§1)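 Compounds in acetone (10% of final volume) diluted with water to 100 and 50 ppm, then mixed into potato-sucrose-agar with each fungus spotted centrally. Incubated several days in a growth room; percent disease control derived from radii of spore growth.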

Rhizopus sp. = settings: for inhibition of growth at 100 ppm / inhibition of growth at 50 ppm: Rhizopus
How it was run: as §1

Phytophthora capsisi = settings: for inhibition of growth at 50 ppm / inhibition of growth at 100 ppm: Phytophthora, read-out: % controlled, Phy ca.
How it was run: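 Compounds dissolved in acetone (10% of final volume) then water at 100 ppm and 50 ppm, mixed into potato-sucrose-agar; fungus spotted at plate centre and incubated several days. Percent disease control derived from radii of spore growth.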

Physalospora baccae = settings: for inhibition of growth at 50 ppm / inhibition of growth at 100 ppm: read-out: % controlled, Phy ba.
How it was run: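 Compounds at 100 and 50 ppm (10% acetone) mixed into potato-sucrose-agar, fungus spotted centrally and grown several days in a growth room. Percent disease control derived from radii of spore growth.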

[1] = test system: Botryosphaeria dothidea Macrophoma sp.; settings: for inhibition of growth at 50 ppm / inhibition of growth at 100 ppm: Botryosphaeria dothidea, read-out: % controlled, Bo.do (Ma.)
How it was run: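 Compounds (100 and 50 ppm, 10% acetone in water) were mixed into potato-sucrose-agar and the fungus was spotted centrally, then incubated several days in a growth room. Percent disease control came from radii of spore growth.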

Glomerella cingulata = settings: for inhibition of growth at 50 ppm / inhibition of growth at 100 ppm: Colletotrichum gloeosporioides, read-out: % controlled, Glo.
How it was run: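 Compounds were dissolved in acetone (10% of final volume) plus water at 100 ppm and 50 ppm and mixed into potato-sucrose agar. G. cingulata was spotted centrally and incubated for several days in a growth room. Percent disease control was derived from the radii of spore growth.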

Pyricalaria oryzae = settings: for inhibition of growth at 50 ppm: read-out: % controlled, Py. or., 50 ppm; for inhibition of growth at 100 ppm: read-out: % controlled, Py. or., 100 ppm
How it was run: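 Compounds at 100 ppm and 50 ppm (10% acetone in water) mixed into potato-sucrose-agar, P. oryzae spotted centrally and incubated several days. Percent disease control derived from radii of spore growth.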

Rhizoctonia solani = settings: for inhibition of growth at 50 ppm / inhibition of growth at 100 ppm: Rhizoctonia solani, read-out: % controlled, Rhy. so.
How it was run: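 Test compounds at 100 ppm and 50 ppm (acetone 10% of final volume, then water) were mixed into potato-sucrose-agar, and the fungus was spotted at the dish centre. Dishes were incubated several days in a growth room. Percent disease control was derived from the radii of spore growth.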

Fusarium moniliforme = test system: Fusarium moniliforme
How it was run: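 Compounds in 10% acetone/water at 100 and 50 ppm were mixed into potato-sucrose-agar, with Fusarium moniliforme spotted centrally. After several days' incubation, percent disease control was derived from radii of spore growth.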

Botry tris cinerea = settings: for inhibition of growth at 50 ppm / inhibition of growth at 100 ppm: read-out: % controlled, Bo ci.
How it was run: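 Compounds at 100 and 50 ppm (acetone 10% of final volume, rest water) mixed into potato-sucrose agar; Botrytis cinerea spotted at dish centre. After several days' incubation, percent disease control calculated from radii of spore growth.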

[2] = 100 ppm, read-out: % controlled, Rhi. sp.
[3] = 50 ppm, read-out: % controlled, Rhi. sp.

Row | Structure (SMILES) | inhibition of growth at 50 ppm (Alternaria mali; 50 ppm) | inhibition of growth at 100 ppm (Alternaria mali; 100 ppm) | inhibition of growth at 100 ppm (Rhizopus sp.; [2]) | inhibition of growth at 50 ppm (Phytophthora capsisi; 50 ppm) | inhibition of growth at 100 ppm (Phytophthora capsisi; 100 ppm) | inhibition of growth at 50 ppm (Physalospora baccae; 50 ppm) | inhibition of growth at 100 ppm (Physalospora baccae; 100 ppm) | inhibition of growth at 50 ppm ([1]; 50 ppm) | inhibition of growth at 100 ppm ([1]; 100 ppm) | inhibition of growth at 50 ppm (Glomerella cingulata; 50 ppm) | inhibition of growth at 100 ppm (Glomerella cingulata; 100 ppm) | inhibition of growth at 50 ppm (Pyricalaria oryzae) | inhibition of growth at 100 ppm (Pyricalaria oryzae) | inhibition of growth at 50 ppm (Rhizoctonia solani; 50 ppm) | inhibition of growth at 100 ppm (Rhizoctonia solani; 100 ppm) | % controlled, Fu. mo. (Fusarium moniliforme; 50 ppm) | % controlled, Fu. mo. (Fusarium moniliforme; 100 ppm) | inhibition of growth at 50 ppm (Botry tris cinerea; 50 ppm) | inhibition of growth at 100 ppm (Botry tris cinerea; 100 ppm) | inhibition of growth at 50 ppm (Rhizopus sp.; [3]) | further results
1 | CCOc1ccc([Si](C)(C)C[Si](C)(Cn2cncn2)c2ccc(F)cc2)cc1 (stereo not shown) [4-(4-ethoxyphenyl)-2-(4-fluorophenyl)-2,4-dimethyl-2,4-disila-1-(1H-1,2,4-triazol-1-yl)pentane] | 63% | 72% | 43% | 50% | 60% | 53% | 74% | 74% | 78% | 71% | 77% | 100% | 100% | 78% | 78% | 58% | 63% | 69% | 66% |  | inhibition of growth at 50 ppm (Rhizopus sp.; read-out: % controlled, Rhi. sp., 50 ppm): 19%
2 | C[Si](C)(Cc1ccc(F)cc1)C[Si](C)(Cn1cncn1)c1ccc(F)cc1 (stereo not shown) [4-(4-fluorobenzyl)-2-(4-fluorophenyl)-2,4-dimethyl-2,4-disila-1-(1H-1,2,4-triazol-1-yl)pentane] | 38% | 43% | 24% | 3% | 3% | 26% | 30% | 40% | 49% | 0% | 0% | 50% | 57% | 36% | 36% | 34% | 41% | 0% | 0% | 21% | 
3 | C=CC[Si](C)(Cn1cncn1)C[Si](CC=C)(CC=C)CC=C (stereo not shown) [4-methyl-6-bis(2-propenyl)-4,6-disila-4-(1H-1,2,4-triazol-1-ylmethyl)-1,8-nonadiene] | 75% | 95% | 80% | 45% | 50% | 80% | 85% | 70% | 75% | 82% | 87% | 100% | 100% | 96% | 96% | 46% | 65% | 60% | 80% | 60% | 
4 | C=CC[Si](C)(Cn1cncn1)C[Si](CC=C)(c1ccccc1)c1ccc(-c2ccccc2)cc1 (stereo not shown) [4-methyl-6-phenyl-6-(4-phenylphenyl)-4,6-disila-4-(1H-1,2,4-triazol-1-ylmethyl)-1,8-nonadiene] | 72% | 100% | 56% | 38% | 60% | 84% | 100% | 100% | 100% | 100% | 100% | 100% | 100% | 80% | 100% | 100% | 100% | 77% | 100% | 40% | 
5 | C=CC[Si](C)(Cn1cncn1)C[Si](CC=C)(c1ccc(F)cc1)c1ccc(F)cc1 (stereo not shown) [6,6-bis(4-fluorophenyl)-4-methyl-4,6-disila-4-(1H-1,2,4-triazol-1-ylmethyl)-1,8-nonadiene] | 78% | 100% | 100% | 21% | 100% | 60% | 80% | 100% | 100% | 100% | 100% | 85% | 100% | 75% | 87% | 100% | 100% | 86% | 100% | 100% | 
6 | C=CC[Si](C)(Cn1cncn1)C[Si](CC=C)(c1ccccc1)c1ccccc1 (stereo not shown) [6,6-diphenyl-4-methyl-4,6-disila-4-(1H-1,2,4-triazol-1-ylmethyl)-1,8-nonadiene] | 72% | 89% | 100% | 33% | 40% | 84% | 100% | 80% | 100% | 89% | 100% | 100% | 100% | 80% | 100% | 60% | 100% | 77% | 100% | 50% | 
7 | C=CC[Si](C[Si](CC)(Cn1cncn1)c1ccc(OCC)cc1)(c1ccc(F)cc1)c1ccc(F)cc1 (stereo not shown) [6-(4-ethoxyphenyl)-4,4-bis(4-fluorophenyl)-6-ethyl-4,6-disila-7-(1H-1,2,4-triazol-1-yl)-1-heptane] |  |  |  |  |  |  |  |  |  |  |  |  |  |  |  | 90% | 90% |  |  |  | % controlled, Al. (Alternaria mali; 50 ppm): 100%; % controlled, Al. (Alternaria mali; 100 ppm): 100%; % controlled, Rhi. sp. (Rhizopus sp.; 50 ppm): 80%; % controlled, Rhi. sp. (Rhizopus sp.; 100 ppm): 90%; % controlled, Phy ca. (Phytophthora capsisi; 50 ppm): 80%; % controlled, Phy ca. (Phytophthora capsisi; 100 ppm): 90%; % controlled, Phy ba. (Physalospora baccae; 50 ppm): 60%; % controlled, Phy ba. (Physalospora baccae; 100 ppm): 75%; % controlled, Bo.do (Ma.) ([1]; 50 ppm): 65%; % controlled, Bo.do (Ma.) ([1]; 100 ppm): 69%; % controlled, Glo. (Glomerella cingulata; 50 ppm): 80%; % controlled, Glo. (Glomerella cingulata; 100 ppm): 80%; % controlled, Py. or. (Pyricalaria oryzae; 50 ppm): 70%; % controlled, Py. or. (Pyricalaria oryzae; 100 ppm): 75%; % controlled, Rhy. so. (Rhizoctonia solani; 50 ppm): 100%; % controlled, Rhy. so. (Rhizoctonia solani; 100 ppm): 100%; % controlled, Bo ci. (Botry tris cinerea; 50 ppm): 60%; % controlled, Bo ci. (Botry tris cinerea; 100 ppm): 60%
8 | C=CC[Si](C[Si](C)(Cn1cncn1)c1ccc(OCC)cc1)(c1ccccc1)c1ccc(-c2ccccc2)cc1 (stereo not shown) [6-(4-ethoxyphenyl)-6-methyl-4-phenyl-4-(4-phenylphenyl-4,6-disila-7-(1H-1,2,4-triazol-1-yl)-1-heptane] | 100% | 100% | 75% | 60% | 70% | 100% | 100% | 100% | 100% | 80% | 90% | 75% | 85% | 100% | 100% | 80% | 80% | 80% | 85% | 75% | 
